Test results published in ChEMBL document CHEMBL1201862, “PubChem BioAssay data set” (2004).
Activity calls are given as the source filed them.

Tests used:
Protein RecA = target: T1, Protein RecA (Mycobacterium tuberculosis, UniProt P9WHJ3); assay: Fluorescence Cell-Free Homogeneous Dose Retest to Identify Inhibitors of RecA-Intein Splicing Activity. [Related pubchem assays (depositor defined):AID2097, AID2223, AID489010, AID492950]; type: functional
T1 sequence (P9WHJ3 whole entry): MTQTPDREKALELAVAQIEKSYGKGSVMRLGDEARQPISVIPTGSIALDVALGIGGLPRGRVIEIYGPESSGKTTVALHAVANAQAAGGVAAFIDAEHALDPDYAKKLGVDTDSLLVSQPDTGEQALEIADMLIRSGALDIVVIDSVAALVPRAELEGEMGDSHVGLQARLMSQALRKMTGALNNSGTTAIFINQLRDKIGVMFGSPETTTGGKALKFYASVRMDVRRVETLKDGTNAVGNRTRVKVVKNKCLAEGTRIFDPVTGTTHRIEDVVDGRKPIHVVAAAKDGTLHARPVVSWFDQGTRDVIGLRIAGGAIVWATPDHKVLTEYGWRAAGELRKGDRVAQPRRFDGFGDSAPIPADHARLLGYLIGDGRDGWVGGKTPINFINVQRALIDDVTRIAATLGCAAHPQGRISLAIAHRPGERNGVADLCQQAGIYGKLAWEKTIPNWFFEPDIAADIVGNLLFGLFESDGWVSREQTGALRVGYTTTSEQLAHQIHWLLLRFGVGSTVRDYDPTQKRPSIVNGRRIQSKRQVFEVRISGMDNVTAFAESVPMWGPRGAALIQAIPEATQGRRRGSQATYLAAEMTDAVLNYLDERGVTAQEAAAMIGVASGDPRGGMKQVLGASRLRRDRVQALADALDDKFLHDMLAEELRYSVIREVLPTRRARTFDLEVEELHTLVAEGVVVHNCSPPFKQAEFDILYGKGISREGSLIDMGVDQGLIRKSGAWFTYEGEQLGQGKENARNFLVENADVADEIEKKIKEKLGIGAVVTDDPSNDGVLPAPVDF

Vero = Vero cell cytotoxicity, cytotoxicity control for flavivirus capping enzyme inhibitors (AID 588742); type: functional; details: Chlorocebus sabaeus
[1] = target: T2, Serine/threonine-protein phosphatase (Candida dubliniensis (strain CD36 / CBS 7987 / NCPF 3949 / NRRLY-17841) (Yeast), UniProt B9W6M3); assay: calcineurin pathway inhibitors in yeast reporter, dose response, S. cerevisiae, CDRE-lacZ, luminescence, secondary (AID 2388); type: functional, cell-based;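 also: yeast reporter cells carrying a calcineurin-responsive lacZ construct stimulated with calcium chloride; luminescent beta-galactosidase reporter signal in whole cells rather than isolated phosphatase activity; potency for inhibition where a drop in reporter signal means calcineurin blockade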
T2 sequence (B9W6M3 whole entry): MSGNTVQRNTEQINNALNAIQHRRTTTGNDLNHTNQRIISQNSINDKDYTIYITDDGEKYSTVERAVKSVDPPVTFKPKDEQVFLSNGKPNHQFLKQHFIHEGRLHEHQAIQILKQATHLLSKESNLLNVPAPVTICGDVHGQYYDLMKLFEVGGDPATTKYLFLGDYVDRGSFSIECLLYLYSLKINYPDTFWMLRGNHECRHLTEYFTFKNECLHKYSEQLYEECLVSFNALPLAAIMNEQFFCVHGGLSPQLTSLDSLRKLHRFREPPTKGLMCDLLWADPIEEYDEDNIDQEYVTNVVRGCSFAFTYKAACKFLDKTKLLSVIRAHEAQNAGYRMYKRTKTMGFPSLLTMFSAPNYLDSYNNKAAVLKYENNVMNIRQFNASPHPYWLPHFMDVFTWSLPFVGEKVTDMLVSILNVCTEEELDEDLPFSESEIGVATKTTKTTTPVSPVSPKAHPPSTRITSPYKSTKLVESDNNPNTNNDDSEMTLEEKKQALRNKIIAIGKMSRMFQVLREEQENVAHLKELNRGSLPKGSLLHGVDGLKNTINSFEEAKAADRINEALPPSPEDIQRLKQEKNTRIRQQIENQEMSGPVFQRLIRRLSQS

[2] = Counterscreen for AddAB inhibitors: absorbance-based bacterial cell-based high throughput dose response assay for inhibitors of bacterial viability. [Related pubchem assays (depositor defined):AID435030, AID449728, AID449731, AID488942, AID488955, AID488956]; type: functional
[3] = target: T3, Heat shock factor protein 1 (Mus musculus, UniProt P38532); assay: HSF1 potentiators in luciferase reporter cells, confirmation, cell-based, NIH3T3, luminescence, dose retest (AID 435004); type: functional;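 also: stress induced by proteasome inhibitor MG132 added 30 min after compound; luciferase reporter driven by HSF1 response element in NIH3T3 cells; actives raise luminescence as potentiators of the MG132 stress response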
T3 sequence (P38532 whole entry): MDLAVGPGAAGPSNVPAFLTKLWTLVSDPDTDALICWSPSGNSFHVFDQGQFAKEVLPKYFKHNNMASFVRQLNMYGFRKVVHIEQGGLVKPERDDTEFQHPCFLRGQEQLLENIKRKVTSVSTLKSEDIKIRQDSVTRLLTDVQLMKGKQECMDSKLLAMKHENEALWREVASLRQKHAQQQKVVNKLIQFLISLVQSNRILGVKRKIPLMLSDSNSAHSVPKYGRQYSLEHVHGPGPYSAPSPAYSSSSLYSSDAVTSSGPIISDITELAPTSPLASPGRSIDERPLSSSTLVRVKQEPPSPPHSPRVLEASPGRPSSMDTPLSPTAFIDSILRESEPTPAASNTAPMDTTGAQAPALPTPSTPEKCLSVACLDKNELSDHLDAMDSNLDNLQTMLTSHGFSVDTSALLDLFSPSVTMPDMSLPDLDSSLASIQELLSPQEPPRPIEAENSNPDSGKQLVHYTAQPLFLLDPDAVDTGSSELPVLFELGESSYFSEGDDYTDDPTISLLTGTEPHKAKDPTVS

[4] = target: Mitogen-activated protein kinase 14 (Homo sapiens, UniProt Q16539); type: functional;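 also: part of a kinome-wide panel, MAPK14 entry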
Sequence of Mitogen-activated protein kinase 14 (Q16539 whole entry): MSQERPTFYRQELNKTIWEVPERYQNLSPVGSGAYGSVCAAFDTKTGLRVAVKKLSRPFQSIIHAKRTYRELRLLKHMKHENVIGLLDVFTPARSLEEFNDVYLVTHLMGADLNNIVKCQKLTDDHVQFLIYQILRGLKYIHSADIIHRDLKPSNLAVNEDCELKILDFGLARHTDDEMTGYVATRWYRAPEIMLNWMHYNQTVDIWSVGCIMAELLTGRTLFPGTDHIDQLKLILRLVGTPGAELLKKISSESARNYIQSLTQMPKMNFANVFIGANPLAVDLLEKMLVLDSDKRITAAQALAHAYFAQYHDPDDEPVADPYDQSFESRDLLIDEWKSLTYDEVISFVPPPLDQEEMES

[5] = target: Mitogen-activated protein kinase 9 (Homo sapiens, UniProt P45984); type: functional;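 also: value from a kinome panel profiling assay, MAPK9 panel entry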
Sequence of Mitogen-activated protein kinase 9 (P45984 whole entry): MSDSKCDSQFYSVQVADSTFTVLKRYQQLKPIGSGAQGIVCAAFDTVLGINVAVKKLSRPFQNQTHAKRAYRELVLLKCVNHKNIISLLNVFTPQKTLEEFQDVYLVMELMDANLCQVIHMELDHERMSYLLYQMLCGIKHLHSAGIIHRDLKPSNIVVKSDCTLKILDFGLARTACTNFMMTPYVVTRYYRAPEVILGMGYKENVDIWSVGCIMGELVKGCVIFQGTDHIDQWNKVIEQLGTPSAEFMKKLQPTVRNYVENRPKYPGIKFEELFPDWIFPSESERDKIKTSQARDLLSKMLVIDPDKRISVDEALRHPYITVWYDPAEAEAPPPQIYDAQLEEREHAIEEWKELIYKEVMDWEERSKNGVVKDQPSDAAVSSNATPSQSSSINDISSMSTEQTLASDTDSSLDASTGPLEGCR

[6] = target: Mitogen-activated protein kinase 10 (Homo sapiens, UniProt P53779); assay: Navigating the Kinome. Panel member name: MAPK10; type: functional
Sequence of Mitogen-activated protein kinase 10 (P53779 whole entry): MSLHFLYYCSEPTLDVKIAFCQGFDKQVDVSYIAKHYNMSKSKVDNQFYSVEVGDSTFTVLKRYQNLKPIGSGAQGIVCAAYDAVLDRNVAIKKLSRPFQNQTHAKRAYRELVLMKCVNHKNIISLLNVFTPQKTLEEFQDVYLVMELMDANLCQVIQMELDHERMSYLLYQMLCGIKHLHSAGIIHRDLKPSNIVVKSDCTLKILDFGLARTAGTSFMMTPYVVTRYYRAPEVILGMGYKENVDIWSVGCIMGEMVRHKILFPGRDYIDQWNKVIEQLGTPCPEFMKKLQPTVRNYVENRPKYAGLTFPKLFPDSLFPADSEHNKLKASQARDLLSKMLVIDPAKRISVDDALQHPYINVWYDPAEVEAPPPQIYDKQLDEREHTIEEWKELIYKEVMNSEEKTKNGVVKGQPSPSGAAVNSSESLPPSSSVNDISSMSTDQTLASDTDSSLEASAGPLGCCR

[7] = target: Dual specificity mitogen-activated protein kinase kinase 2 (Homo sapiens, UniProt P36507); assay: Navigating the Kinome. Panel member name: MAP2K2; type: functional
Sequence of Dual specificity mitogen-activated protein kinase kinase 2 (P36507 whole entry): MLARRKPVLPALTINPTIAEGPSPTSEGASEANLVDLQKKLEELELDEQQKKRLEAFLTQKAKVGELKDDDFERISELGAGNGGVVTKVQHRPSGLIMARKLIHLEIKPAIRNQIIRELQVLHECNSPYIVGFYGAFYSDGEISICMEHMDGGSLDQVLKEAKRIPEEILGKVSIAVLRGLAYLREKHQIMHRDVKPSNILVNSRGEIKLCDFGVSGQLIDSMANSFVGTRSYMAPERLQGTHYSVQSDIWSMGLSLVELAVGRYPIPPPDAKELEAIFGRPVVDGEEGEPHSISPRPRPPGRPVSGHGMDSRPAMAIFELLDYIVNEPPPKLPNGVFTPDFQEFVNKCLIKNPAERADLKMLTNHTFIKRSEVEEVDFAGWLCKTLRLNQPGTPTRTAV

[8] = target: Insulin-like growth factor 1 receptor (Homo sapiens, UniProt P08069); assay: Navigating the Kinome. Panel member name: IGF1R; type: functional
Sequence of Insulin-like growth factor 1 receptor (P08069 31-736 limits assumed): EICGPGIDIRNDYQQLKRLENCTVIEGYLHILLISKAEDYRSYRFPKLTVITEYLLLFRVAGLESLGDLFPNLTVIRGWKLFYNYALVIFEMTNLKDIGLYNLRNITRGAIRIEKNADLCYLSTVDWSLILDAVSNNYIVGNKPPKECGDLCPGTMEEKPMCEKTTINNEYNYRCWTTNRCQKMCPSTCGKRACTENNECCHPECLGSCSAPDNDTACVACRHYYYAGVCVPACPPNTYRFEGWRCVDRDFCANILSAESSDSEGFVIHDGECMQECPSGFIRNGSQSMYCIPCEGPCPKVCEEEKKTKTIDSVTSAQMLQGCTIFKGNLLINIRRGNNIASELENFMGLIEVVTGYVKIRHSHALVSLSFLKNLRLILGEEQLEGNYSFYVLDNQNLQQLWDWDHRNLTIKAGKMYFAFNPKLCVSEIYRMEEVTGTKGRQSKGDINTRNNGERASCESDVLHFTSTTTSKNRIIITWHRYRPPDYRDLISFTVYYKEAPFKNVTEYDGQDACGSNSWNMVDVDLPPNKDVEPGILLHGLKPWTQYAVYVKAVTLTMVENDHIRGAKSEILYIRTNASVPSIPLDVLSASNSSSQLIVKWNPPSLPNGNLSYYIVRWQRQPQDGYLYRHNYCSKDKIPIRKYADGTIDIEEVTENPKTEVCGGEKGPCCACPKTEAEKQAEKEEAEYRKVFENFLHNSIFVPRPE
Sequence of Insulin-like growth factor 1 receptor (P08069 741-1367 limits assumed): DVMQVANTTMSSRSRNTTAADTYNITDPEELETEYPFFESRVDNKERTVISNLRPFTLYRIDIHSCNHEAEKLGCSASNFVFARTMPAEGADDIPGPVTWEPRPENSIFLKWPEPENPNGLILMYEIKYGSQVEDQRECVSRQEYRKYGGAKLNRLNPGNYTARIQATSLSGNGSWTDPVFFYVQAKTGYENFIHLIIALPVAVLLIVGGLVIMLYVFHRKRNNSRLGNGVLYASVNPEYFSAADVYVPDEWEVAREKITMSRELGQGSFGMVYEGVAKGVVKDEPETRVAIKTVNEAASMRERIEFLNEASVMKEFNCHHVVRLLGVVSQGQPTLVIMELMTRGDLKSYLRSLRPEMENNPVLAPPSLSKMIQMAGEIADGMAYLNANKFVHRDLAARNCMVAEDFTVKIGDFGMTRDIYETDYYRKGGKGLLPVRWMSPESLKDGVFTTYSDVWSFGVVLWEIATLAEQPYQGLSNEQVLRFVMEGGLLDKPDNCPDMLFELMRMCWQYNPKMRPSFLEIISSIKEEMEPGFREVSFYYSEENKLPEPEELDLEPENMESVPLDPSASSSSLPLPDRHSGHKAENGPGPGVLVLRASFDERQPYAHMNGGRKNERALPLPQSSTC

[9] = target: 5'-AMP-activated protein kinase catalytic subunit alpha-1 (Homo sapiens, UniProt Q13131); type: functional
Sequence of 5'-AMP-activated protein kinase catalytic subunit alpha-1 (Q13131 whole entry): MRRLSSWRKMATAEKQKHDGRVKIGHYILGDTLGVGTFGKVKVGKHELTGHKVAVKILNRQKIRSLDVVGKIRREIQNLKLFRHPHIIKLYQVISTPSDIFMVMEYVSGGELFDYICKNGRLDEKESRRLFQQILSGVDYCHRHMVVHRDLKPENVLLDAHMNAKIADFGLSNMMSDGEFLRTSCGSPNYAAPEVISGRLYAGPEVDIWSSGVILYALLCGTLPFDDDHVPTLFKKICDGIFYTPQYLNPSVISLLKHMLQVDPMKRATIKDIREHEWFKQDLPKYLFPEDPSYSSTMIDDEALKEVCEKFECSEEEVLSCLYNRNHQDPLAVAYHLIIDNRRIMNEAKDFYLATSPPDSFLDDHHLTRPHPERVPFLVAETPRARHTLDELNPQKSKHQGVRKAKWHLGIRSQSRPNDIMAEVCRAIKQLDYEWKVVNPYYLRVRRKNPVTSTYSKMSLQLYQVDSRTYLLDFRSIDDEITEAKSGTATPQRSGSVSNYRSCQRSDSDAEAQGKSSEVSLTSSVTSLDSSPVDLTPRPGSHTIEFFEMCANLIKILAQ

Activated CDC42 kinase 1 = Activated CDC42 kinase 1 (Homo sapiens, UniProt Q07912); assay: Navigating the Kinome. Panel member name: ACK1; type: functional
[10] = target: Glycogen synthase kinase-3 beta (Homo sapiens, UniProt P49841); type: functional;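 also: value comes from a broad kinome profiling panel, with GSK3B as the panel member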
Sequence of Glycogen synthase kinase-3 beta (P49841 whole entry): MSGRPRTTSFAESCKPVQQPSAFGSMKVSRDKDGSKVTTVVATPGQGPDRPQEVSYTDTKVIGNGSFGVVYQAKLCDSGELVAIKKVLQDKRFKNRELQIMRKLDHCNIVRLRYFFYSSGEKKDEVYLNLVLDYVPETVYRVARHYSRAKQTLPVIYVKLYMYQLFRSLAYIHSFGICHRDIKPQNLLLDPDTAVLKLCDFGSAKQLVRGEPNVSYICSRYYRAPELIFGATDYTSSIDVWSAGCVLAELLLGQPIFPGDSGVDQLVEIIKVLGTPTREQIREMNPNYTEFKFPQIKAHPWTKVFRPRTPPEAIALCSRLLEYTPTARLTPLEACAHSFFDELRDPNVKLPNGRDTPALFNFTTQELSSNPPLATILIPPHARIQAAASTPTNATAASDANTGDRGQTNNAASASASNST

[11] = target: Serine/threonine-protein kinase TAO1 (Homo sapiens, UniProt Q7L7X3); type: functional
[12] = target: Serine/threonine-protein kinase PAK 4 (Homo sapiens, UniProt O96013); type: functional;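 also: value obtained within a kinome profiling panel in which PAK4 was one of the panel members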
Sequence of Serine/threonine-protein kinase PAK 4 (O96013 whole entry): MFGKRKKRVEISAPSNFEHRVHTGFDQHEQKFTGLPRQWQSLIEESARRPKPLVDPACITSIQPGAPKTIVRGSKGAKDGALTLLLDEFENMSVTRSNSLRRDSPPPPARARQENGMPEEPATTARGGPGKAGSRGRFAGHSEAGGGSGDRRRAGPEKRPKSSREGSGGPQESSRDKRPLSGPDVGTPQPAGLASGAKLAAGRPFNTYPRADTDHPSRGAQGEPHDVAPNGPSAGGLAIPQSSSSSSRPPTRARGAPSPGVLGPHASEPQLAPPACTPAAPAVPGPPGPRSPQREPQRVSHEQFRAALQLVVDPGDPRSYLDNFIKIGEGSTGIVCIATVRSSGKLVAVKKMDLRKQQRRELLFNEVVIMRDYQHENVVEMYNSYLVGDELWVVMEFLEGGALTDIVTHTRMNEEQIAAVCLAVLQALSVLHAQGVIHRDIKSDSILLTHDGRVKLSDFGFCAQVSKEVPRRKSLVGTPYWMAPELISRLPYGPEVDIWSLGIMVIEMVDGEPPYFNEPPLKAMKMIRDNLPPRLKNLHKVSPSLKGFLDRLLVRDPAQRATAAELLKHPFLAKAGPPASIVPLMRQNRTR

[13] = target: Hepatocyte growth factor receptor (Homo sapiens, UniProt P08581); type: functional;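 also: kinase panel profiling across the kinome, with MET as the panel member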

O=C(NC1=C(NC2CCS(=O)(=O)C2)C(=O)c2ccccc2C1=O)c1ccccc1 (stereo unspecified)
EC50 (Protein RecA): 0.101 µM (active)
CC50 (Vero): 7.48 µM (active)

CCCC(=O)NC(c1ccc(N(C)C)cc1)c1ccc2cccnc2c1O (stereo unspecified)
EC50 [1]: > 180 µM (inactive)
IC50 [2]: > 119 µM (inactive)
EC50 [3]: > 260 µM (inactive)

O=C1NC(=O)C(c2c[nH]c3ccccc23)=C1c1nc(N2CCNCC2)nc2ccccc12
Ki [4]: > 3.98 µM (inactive)
Ki [5]: > 3.98 µM (inactive)
Ki [6]: > 3.16 µM (inactive)
Ki [7]: 1.26 µM (active)
Ki [8]: > 2.51 µM (inactive)
Ki [9]: 0.2 µM (active)
Ki (Activated CDC42 kinase 1): > 3.98 µM (inactive)
Ki [10]: > 3.98 µM (inactive)
Ki [11]: 1 µM (active)
Ki [12]: 2 µM (active)
Ki [13]: 0.398 µM (active)
